One data set concerns the target T1, NMDA receptors (Rattus norvegicus, UniProt P35439).
T1 construct: Patch clamp recordings were made from these neurones; endogenous in cells; host or cells: primary cultured hippocampal neurones from rat embryos (E20 to E21)
In words: Patch clamp, NMDA-induced currents in hippocampal neurones. In kind it is cell-based.

In another data set the target is T2, NR1a/2A receptors (Homo sapiens, UniProt Q05586+Q12879).
T2 construct: expressed in transfected cells; host or cells: Xenopus laevis oocytes injected with subunit RNA
The experiment in a line: NMDA receptor blockade in Xenopus oocytes, two-electrode voltage clamp. It counts as cell-based. As to conditions: Xenopus oocytes expressing NR1a/2A. The protocol:
Mature female Xenopus laevis were anaesthetized in 0.2% Tricaine on ice for 15 min prior to surgery. Oocytes were removed and incubated in 2 mg/ml collagenase (type II) in Ca^2+-free oocyte Ringer solution (82.5 mM NaCl, 2 mM KCl, 2 mM MgCl2, 5 mM HEPES, pH 7.5) for 30 min. at room temperature and washed thoroughly with OR-2 (100 mM NaCl, 2 mM KCl, 1 mM MgCl2, 2 mM CaCl2, 5 mM HEPES, pH 7.5). The remaining follicle cell layer was removed manually with fine forceps and the oocytes were kept in OR-2. The RNA was dissolved in DEPC-treated, sterile distilled water. RNA for the NMDA NR1a subunit was mixed 1:1 with RNA for the NR2A subunit. Likewise neuronal nicotinic α4 RNA was mixed 1:1 with RNA for the β2 subunit. […]
Only results from stable cells were accepted for inclusion in the final analysis i.e. showing at least 50% recovery of responses to NMDA following removal of the antagonist tested. […] All antagonists were assessed at steady-state blockade with 6 to 7 concentrations on at least 4 cells. […]
Kinetic experiments were performed by applying various concentrations of unsaturated amino-alkyl-cyclohexanes (normally 5 in a log 3 dosing regime) for 10-20 seconds in the continuous presence of glutamate (100 μM and glycine 10 μM) for 90-180 seconds in Xenopus oocytes expressing NR1a/2A receptors. […] Voltage-dependency was then determined by comparing the glutamate and glutamate plus antagonist curves. […]

In data set [1] the test system is maximal electroshock (MES) tonic convulsions. In words: Maximal electroshock (MES) test, anticonvulsive activity. It counts as in vivo, mice. As to conditions: Mus musculus, ip; NMR female mice, i.p. 30 min before convulsions; read-out: MES ED50. The protocol: (§1) NMR female mice (18-28 g) housed 5 per cage were used for the maximal electroshock (MES) and motor impairment tests. All animals were kept with water and food ad libitum under a 12 hour light-dark cycle (light on at 6 a.m.) and at a controlled temperature (20±0.5C). All experiments were performed between 10 a.m. and 5 p.m. Tested agents were injected 30 min. i.p. before the induction of convulsions if not stated otherwise (see below). All compounds were dissolved in 0.9% saline.
(§2) The MES test was performed together with tests for myorelaxant action (traction reflex) and motor coordination (rotarod). For the traction reflex test mice were placed with their forepaws on a horizontal rod and were required to place all 4 paws on the wire within 10 seconds. To test ataxia (motor coordination) mice were placed on an accelerating rotarod and were required to remain on the rod for 1 minute. […] These tests were followed by MES (100 Hz, 0.5 second shock duration, 50 mA shock intensity, 0.9 ms impulse duration, Ugo Basile) applied through corneal electrodes. The presence of tonic convulsions was scored (tonic extension of hind paws with minimum angle to the body of 90). The aim was to obtain ED50s for all parameters scored (anticonvulsive activity and motor side effects) with use of the Litchfield Wilcoxon test for quantal dose responses. Division of the ED50 for side effects (ataxia or myorelaxation) by the ED50 for antagonism of electroshock convulsions was used as a therapeutic index (TI).
(§3) 4-7 doses of antagonists were tested in each of the in vivo tests (5-8 animals per dose) to allow calculation of graded ED50s according to probit analysis (Litchfield and Wilcoxon) with correction for 0% to 100% effects. ED50s are presented with 95% confidence limits (Cl). Pearson product moment correlation analysis (Sigma Stat, Jandel Scientific) was used to compare in vitro potencies and in vivo anticonvulsant activity.

The nature of data set [2]: Traction reflex test, myorelaxant action. In kind it is in vivo, mice. As to conditions: mouse, in vivo, ip; NMR female mice, i.p., traction reflex; read-out: Myorelaxation ED50. The protocol:
as §1, §2, §3

Data set [3] concerns myorelaxation (traction reflex). In words: Traction reflex test, myorelaxant action. As to conditions: ED50 myorelaxation divided by ED50 MES. In kind it is in vivo, mice. The protocol: as §1, §2, §3
Data set [4] in a line: Accelerating rotarod test, ataxia (motor coordination). In kind it is in vivo, mice. As to conditions: mouse, in vivo, ip; NMR female mice, accelerating rotarod. The protocol: as §1, §2, §3
The subject of the next data set is ataxia (rotarod). The data set is described as above. It counts as in vivo, mice. As to conditions: ED50 ataxia divided by ED50 MES. The procedure: as §1, §2, §3
In data set [5] the target is NMDA receptor ([3H]-(+)-MK-801 site) (Rattus norvegicus, UniProt P35439). The experiment in a line: [3H]-(+)-MK-801 receptor binding, rat cortex membranes.

SMILES strings stand for the structures. pIC50, pKi: −log10 of the molar value.

T2 sequence (Q12879 23-1464, other chains not shown): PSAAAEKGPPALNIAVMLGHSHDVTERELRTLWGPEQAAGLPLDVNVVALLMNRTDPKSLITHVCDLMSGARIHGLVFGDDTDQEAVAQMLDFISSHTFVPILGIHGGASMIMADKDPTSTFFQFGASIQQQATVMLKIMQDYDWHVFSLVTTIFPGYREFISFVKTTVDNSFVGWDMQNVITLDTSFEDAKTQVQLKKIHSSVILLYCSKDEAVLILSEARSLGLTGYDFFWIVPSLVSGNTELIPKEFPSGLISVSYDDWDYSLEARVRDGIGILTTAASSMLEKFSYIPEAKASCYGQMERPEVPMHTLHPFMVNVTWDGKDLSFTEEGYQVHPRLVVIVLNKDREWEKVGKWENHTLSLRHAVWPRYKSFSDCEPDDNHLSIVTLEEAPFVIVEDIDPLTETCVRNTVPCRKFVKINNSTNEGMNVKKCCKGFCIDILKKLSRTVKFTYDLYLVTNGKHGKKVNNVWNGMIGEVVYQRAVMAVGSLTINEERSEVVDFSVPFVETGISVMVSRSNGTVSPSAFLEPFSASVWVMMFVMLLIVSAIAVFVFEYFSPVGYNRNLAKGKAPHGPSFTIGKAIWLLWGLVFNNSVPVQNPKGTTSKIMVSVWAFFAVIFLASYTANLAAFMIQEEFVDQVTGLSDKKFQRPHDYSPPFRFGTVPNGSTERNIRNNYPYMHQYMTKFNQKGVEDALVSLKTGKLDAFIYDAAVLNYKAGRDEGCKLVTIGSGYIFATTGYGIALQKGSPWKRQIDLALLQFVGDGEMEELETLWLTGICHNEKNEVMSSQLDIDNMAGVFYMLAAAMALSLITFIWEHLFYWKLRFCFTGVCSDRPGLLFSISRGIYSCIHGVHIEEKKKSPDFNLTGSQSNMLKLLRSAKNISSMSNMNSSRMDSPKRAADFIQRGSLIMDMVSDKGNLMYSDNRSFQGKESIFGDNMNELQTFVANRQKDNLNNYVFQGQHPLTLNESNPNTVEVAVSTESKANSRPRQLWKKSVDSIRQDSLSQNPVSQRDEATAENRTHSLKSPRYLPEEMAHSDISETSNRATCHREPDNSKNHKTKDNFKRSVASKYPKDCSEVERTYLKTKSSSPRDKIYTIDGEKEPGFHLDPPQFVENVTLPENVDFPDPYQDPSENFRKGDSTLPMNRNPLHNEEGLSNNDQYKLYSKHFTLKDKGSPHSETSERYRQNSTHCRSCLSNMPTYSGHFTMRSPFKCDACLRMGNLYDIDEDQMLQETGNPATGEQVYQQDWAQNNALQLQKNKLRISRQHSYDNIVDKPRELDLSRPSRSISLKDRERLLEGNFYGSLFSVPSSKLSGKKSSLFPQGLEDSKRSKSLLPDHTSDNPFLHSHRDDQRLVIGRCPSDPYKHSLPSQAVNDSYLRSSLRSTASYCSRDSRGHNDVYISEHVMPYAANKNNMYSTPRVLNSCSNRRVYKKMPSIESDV

Take `C=CC1(N)CC(C)(C)CC(C)(C)C1` [MRZ 2/759, 1-Ethenyl-3,3,5,5-tetramethylcyclohexylamine]: the pIC50 is 5.48 on NMDA receptors (Table 1, mean, N=6, read-out: NMDA IC50) and 5.70 against NR1a/2A receptors (glutamate 100 μM, glycine 10 μM, -70 mV). Further, the “use- and voltage-dependency of blockade” value at NMDA receptors (hippocampal neurones, NMDA-induced currents) is “clear use- and voltage-dependency”. The “Steady-state inward current responses to NMDA” value at NMDA receptors (hippocampal neurones, NMDA 200 μM with glycine 1 μM at -70 mV) is recorded as “antagonized”. The same compound came in with a Hill at NR1a/2A receptors (logistic fit of the concentration-blockade curve) of 0.75. Further, the ED50 in data set [1] was determined as 14.8 mg/kg. Further, the ED50 at 30 min in data set [2] came out at 12.8 mg/kg; in data set [4] it was 15 mg/kg. Also, in data set [3], the “Therapeutic index (myorelaxation ED50 / MES ED50)” value is on record as 0.9. The “Therapeutic index (ataxia ED50 / MES ED50)” value in the data set on ataxia (rotarod) was determined as 1.0. The pKi in data set [5] is 5.93.

For the origin of these results see patent publication US6828462B2, “Unsaturated 1-amino-alkylcyclohexane NMDA, 5HT3, and neuronal nicotinic receptor antagonists” (Merz Pharma GmbH & Co. KGAA, priority 2001, dated 2004).
